Measurements: ChEMBL document CHEMBL1201862, “PubChem BioAssay data set” (2004)
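Exposure lasted 48 hours, with cells grown in 96-well plates and compounds tested at five concentrations. GI50 = concentration required for 50% inhibition of growth.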 Active and inactive are the calls of the source. Cut-off read from the data, not from the text of the source: active = GI50 up to about 1.1 µM and inactive = higher. Where a SMILES comes first, the peptide text is derived from it. [ ]: non-standard residue; d: D form. 2Nal = N[CH](Cc1ccc2ccccc2c1)C(=O)O

Key:
Experiment in all cases: NCI-60 cell line screen, 48 h
[1] = tested on: DMS-114
[2] = tested on: M19-MEL
[3] = tested on: HOP-18
[4] = tested on: RXF 631
[5] = tested on: DLD-1
[6] = tested on: KM-20L2
[7] = tested on: XF498
[8] = tested on: DMS-273
[9] = tested on: SNB-78

SMILES: COc1ccc(C(=O)CC2=Nc3nnc(CCCCCCCc4nnc5n4C(=O)C(CC(=O)c4ccc(OC)cc4)=N5)n3C2=O)cc1
- GI50 [1]: > 100 µM (inactive)
- GI50 [2]: > 100 µM (inactive)
- GI50 [3]: > 100 µM (inactive)
- GI50 [4]: > 100 µM (inactive)
- GI50 [5]: > 100 µM (inactive)
- GI50 [6]: > 100 µM (inactive)
- GI50 [7]: > 100 µM (inactive)

SMILES: CCOC(OC1=C(C#N)CCCC1)C(CC)[Se]c1ccccc1 (stereo unspecified)
- GI50 [8]: 12 µM (inactive)
- GI50 [1]: 4.1 µM (inactive)
- GI50 [9]: 33.8 µM (inactive)
- GI50 [2]: 19.4 µM (inactive)
- GI50 [3]: 16.4 µM (inactive)
- GI50 [4]: 11.3 µM (inactive)
- GI50 [5]: 16.1 µM (inactive)
- GI50 [6]: 25.1 µM (inactive)
- GI50 [7]: 20.4 µM (inactive)

SMILES: CCOC(=O)C(=O)CC1=Nc2ccccc2SC(c2cccc(C)c2)C1 (stereo unspecified)
- GI50 [8]: 19.6 µM (inactive)
- GI50 [1]: 14.9 µM (inactive)
- GI50 [9]: 16 µM (inactive)
- GI50 [2]: 18.8 µM (inactive)
- GI50 [4]: 16 µM (inactive)
- GI50 [5]: 17.8 µM (inactive)
- GI50 [6]: 17.9 µM (inactive)

SMILES: O=C(O)c1ccc([C@@H]2C(=O)N(O)[C@@H]3C=CC[C@@H]32)cc1
- GI50 [8]: > 100 µM (inactive)
- GI50 [1]: > 100 µM (inactive)
- GI50 [9]: > 100 µM (inactive)
- GI50 [2]: > 100 µM (inactive)
- GI50 [4]: > 100 µM (inactive)
- GI50 [5]: > 100 µM (inactive)
- GI50 [7]: > 100 µM (inactive)

SMILES: COc1cc(C2C(C(=O)Nc3ccc(Cl)c(Cl)c3)=C(C)NC(C)=C2C(=O)Nc2ccc(Cl)c(Cl)c2)ccc1O
- GI50 [1]: 6.49 µM (inactive)
- GI50 [9]: 14.9 µM (inactive)
- GI50 [2]: 14.5 µM (inactive)
- GI50 [5]: 10.6 µM (inactive)
- GI50 [6]: 19.8 µM (inactive)
- GI50 [7]: 17.4 µM (inactive)

SMILES: COc1cc2c(cc1OC)C(C#N)N(C(=O)c1ccccc1)C=C2OC(=O)c1ccccc1 (stereo unspecified)
- GI50 [8]: 21.7 µM (inactive)
- GI50 [1]: 31 µM (inactive)
- GI50 [9]: 30 µM (inactive)
- GI50 [2]: 33.7 µM (inactive)
- GI50 [3]: 22 µM (inactive)
- GI50 [5]: 29.6 µM (inactive)
- GI50 [6]: 52.4 µM (inactive)
- GI50 [7]: 26.5 µM (inactive)

SMILES: COC1CC(OC)C(O)C(CO)O1 (stereo unspecified)
- GI50 [9]: > 100 µM (inactive)
- GI50 [2]: > 100 µM (inactive)
- GI50 [3]: > 100 µM (inactive)
- GI50 [5]: > 100 µM (inactive)
- GI50 [6]: > 100 µM (inactive)
- GI50 [7]: > 100 µM (inactive)

SMILES: COC(=O)C1=CCC2c3[nH]c4ccccc4c3CCN2C1 (stereo unspecified)
- GI50 [8]: > 354 µM (inactive)
- GI50 [1]: > 354 µM (inactive)
- GI50 [2]: > 354 µM (inactive)
- GI50 [5]: > 354 µM (inactive)
- GI50 [6]: > 354 µM (inactive)

SMILES: C/C=C(/CCCCNCCCC)[Si](C)(C)C
- GI50 [8]: 18.4 µM (inactive)
- GI50 [1]: 14.6 µM (inactive)
- GI50 [9]: 14.2 µM (inactive)
- GI50 [2]: 16.8 µM (inactive)
- GI50 [3]: > 10 µM (inactive)
- GI50 [4]: 15 µM (inactive)
- GI50 [5]: 14.6 µM (inactive)
- GI50 [6]: 7.52 µM (inactive)
- GI50 [7]: 11.3 µM (inactive)

SMILES: CC(C)(C)OC(=O)N[C@H]1CC(=O)c2ccccc2N(CC(=O)O)C1=O
- GI50 [8]: > 100 µM (inactive)
- GI50 [1]: > 100 µM (inactive)
- GI50 [2]: > 100 µM (inactive)
- GI50 [3]: > 100 µM (inactive)
- GI50 [4]: > 100 µM (inactive)
- GI50 [5]: > 100 µM (inactive)
- GI50 [6]: > 100 µM (inactive)

SMILES: COC(=O)/C(C#N)=C1\NN=NN1c1ccc(OC)cc1
- GI50 [8]: > 100 µM (inactive)
- GI50 [1]: > 100 µM (inactive)
- GI50 [9]: > 100 µM (inactive)
- GI50 [2]: > 100 µM (inactive)
- GI50 [3]: > 100 µM (inactive)
- GI50 [4]: > 100 µM (inactive)
- GI50 [5]: > 100 µM (inactive)

SMILES: COc1ccc2nccc(NCCCN3CCN(CCCNc4ccnc5ccc(OC)cc45)CC3)c2c1
- GI50 [8]: 0.418 µM (active)
- GI50 [1]: 0.128 µM (active)
- GI50 [9]: 0.873 µM (active)
- GI50 [2]: 0.652 µM (active)
- GI50 [5]: 0.843 µM (active)
- GI50 [6]: 0.703 µM (active)
- GI50 [7]: 0.201 µM (active)

SMILES: CC(=O)O[C@]12CCC[C@H]1C1(O)C(O)CCC[C@H]12 (stereo partly specified)
- GI50 [8]: > 100 µM (inactive)
- GI50 [1]: > 100 µM (inactive)
- GI50 [9]: > 100 µM (inactive)
- GI50 [2]: > 100 µM (inactive)
- GI50 [3]: > 100 µM (inactive)
- GI50 [6]: > 100 µM (inactive)
- GI50 [7]: > 100 µM (inactive)

SMILES: COC(CN1C=C(Sc2ccccc2)CC1)OC
- GI50 [1]: 23.2 µM (inactive)
- GI50 [9]: 34.3 µM (inactive)
- GI50 [2]: 31.8 µM (inactive)
- GI50 [3]: 59.3 µM (inactive)
- GI50 [5]: 29 µM (inactive)
- GI50 [6]: 38.8 µM (inactive)
- GI50 [7]: 22.4 µM (inactive)

SMILES: CCOC(OC1=C(C#N)CCC1)C(C)[Se]c1ccccc1 (stereo unspecified)
- GI50 [8]: 14.5 µM (inactive)
- GI50 [1]: 4.06 µM (inactive)
- GI50 [9]: 29.8 µM (inactive)
- GI50 [2]: 14.8 µM (inactive)
- GI50 [3]: 25.4 µM (inactive)
- GI50 [4]: 11.1 µM (inactive)
- GI50 [5]: 30.5 µM (inactive)
- GI50 [6]: 45.4 µM (inactive)

SMILES: CC1CC(=O)C(C(O)CC2CC(=O)N(c3ccccc3)C(=O)C2)C(C)C1 (stereo unspecified)
- GI50 [8]: > 100 µM (inactive)
- GI50 [1]: > 100 µM (inactive)
- GI50 [9]: > 100 µM (inactive)
- GI50 [2]: > 100 µM (inactive)
- GI50 [3]: > 100 µM (inactive)
- GI50 [5]: > 100 µM (inactive)
- GI50 [6]: > 100 µM (inactive)

SMILES: c1ccc2c(c1)CCC/C2=N\OCC1CO1 (stereo unspecified)
- GI50 [8]: > 100 µM (inactive)
- GI50 [9]: > 100 µM (inactive)
- GI50 [2]: > 100 µM (inactive)
- GI50 [3]: 66.2 µM (inactive)
- GI50 [4]: > 100 µM (inactive)
- GI50 [5]: 73.3 µM (inactive)
- GI50 [6]: > 100 µM (inactive)
- GI50 [7]: 37.6 µM (inactive)

SMILES: CCCCCCCCOCC(CO)OCCCCCCCC (stereo unspecified)
- GI50 [8]: 18.7 µM (inactive)
- GI50 [1]: 21.2 µM (inactive)
- GI50 [2]: 20 µM (inactive)
- GI50 [3]: 11.7 µM (inactive)
- GI50 [4]: 17.7 µM (inactive)
- GI50 [5]: 18 µM (inactive)
- GI50 [6]: > 10 µM (inactive)

SMILES: O=C(CSc1nc(-c2ccccc2)c(-c2ccccc2)[nH]1)NNC(=S)Nc1ccccc1
- GI50 [8]: 92.7 µM (inactive)
- GI50 [1]: 57 µM (inactive)
- GI50 [9]: > 100 µM (inactive)
- GI50 [2]: 91.6 µM (inactive)
- GI50 [5]: 96.4 µM (inactive)
- GI50 [6]: > 100 µM (inactive)
- GI50 [7]: 61.9 µM (inactive)

SMILES: COC(=O)C(Cc1cc(OC)c(OC)c(OC)c1)c1ccc(OC)cc1 (stereo unspecified)
- GI50 [8]: > 100 µM (inactive)
- GI50 [1]: 62.4 µM (inactive)
- GI50 [9]: > 100 µM (inactive)
- GI50 [2]: > 100 µM (inactive)
- GI50 [3]: > 100 µM (inactive)
- GI50 [4]: > 100 µM (inactive)
- GI50 [5]: > 100 µM (inactive)
- GI50 [6]: > 100 µM (inactive)

SMILES: CC(NC(=O)C(N)Cc1ccccc1)C(=O)NC(Cc1ccc(O)cc1)C(=O)NC(Cc1c[nH]c2ccccc12)C(=O)NC(CCCCN)C(=O)NC(C(=O)NC(C)C(=O)NC(Cc1ccc2ccccc2c1)C(N)=O)C(C)C (stereo unspecified) (H-FAYWKVA[2Nal]-NH2; configuration not given here)
- GI50 [8]: 24.6 µM (inactive)
- GI50 [1]: 31.7 µM (inactive)
- GI50 [9]: 44.3 µM (inactive)
- GI50 [2]: 27 µM (inactive)
- GI50 [3]: 23.9 µM (inactive)
- GI50 [5]: 31.8 µM (inactive)
- GI50 [6]: 27.1 µM (inactive)
- GI50 [7]: 21.4 µM (inactive)

SMILES: COc1ccc(/C=C/c2cc(OC)cc(OC)c2)cc1 [TRISMETHOXYRESVERATROL]
- GI50 [8]: 3.79 µM (inactive)
- GI50 [1]: 3.5 µM (inactive)
- GI50 [9]: 3.98 µM (inactive)
- GI50 [2]: 6.31 µM (inactive)
- GI50 [3]: > 24.3 µM (inactive)
- GI50 [4]: 4.2 µM (inactive)
- GI50 [5]: 5.28 µM (inactive)
- GI50 [6]: 3.15 µM (inactive)
- GI50 [7]: 8.43 µM (inactive)
